For assay [1], the target named is T1, Histone acetyltransferase KAT2B (Homo sapiens, UniProt Q92831).
Target sequence in this assay (Q92831 whole entry, looked up): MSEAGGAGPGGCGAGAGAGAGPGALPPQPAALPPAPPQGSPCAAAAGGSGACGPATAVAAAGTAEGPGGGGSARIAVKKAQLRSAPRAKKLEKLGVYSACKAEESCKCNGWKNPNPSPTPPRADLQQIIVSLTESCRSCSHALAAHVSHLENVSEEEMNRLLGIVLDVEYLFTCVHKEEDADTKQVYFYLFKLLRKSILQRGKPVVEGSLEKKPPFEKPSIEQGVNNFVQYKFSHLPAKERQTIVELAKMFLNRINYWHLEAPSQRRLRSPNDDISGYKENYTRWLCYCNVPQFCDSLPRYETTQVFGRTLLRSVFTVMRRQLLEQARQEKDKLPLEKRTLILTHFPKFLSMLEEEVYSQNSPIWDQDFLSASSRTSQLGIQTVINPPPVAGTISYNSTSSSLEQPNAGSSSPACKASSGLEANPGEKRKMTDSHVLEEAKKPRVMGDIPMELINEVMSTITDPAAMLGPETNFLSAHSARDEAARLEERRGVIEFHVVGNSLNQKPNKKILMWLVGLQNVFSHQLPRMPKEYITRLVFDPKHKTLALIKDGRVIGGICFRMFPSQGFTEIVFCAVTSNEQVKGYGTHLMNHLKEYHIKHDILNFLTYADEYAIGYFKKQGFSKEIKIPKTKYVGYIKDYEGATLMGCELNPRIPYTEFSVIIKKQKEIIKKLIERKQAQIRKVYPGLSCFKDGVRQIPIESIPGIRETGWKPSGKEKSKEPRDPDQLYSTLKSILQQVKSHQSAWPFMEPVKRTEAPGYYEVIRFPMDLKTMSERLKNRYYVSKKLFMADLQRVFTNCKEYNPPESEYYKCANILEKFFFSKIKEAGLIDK
Description: Binding affinity to recombinant N-terminal His-tagged PCAF (715 to 831 residues) (unknown origin) expressed in Escherichia coli Rosetta cells at 1 mM by differential scanning fluorimetry
Assay [2] addresses T2, Bromodomain-containing protein 9 (Homo sapiens) (UniProt Q9H8M2).
T2 sequence (whole entry): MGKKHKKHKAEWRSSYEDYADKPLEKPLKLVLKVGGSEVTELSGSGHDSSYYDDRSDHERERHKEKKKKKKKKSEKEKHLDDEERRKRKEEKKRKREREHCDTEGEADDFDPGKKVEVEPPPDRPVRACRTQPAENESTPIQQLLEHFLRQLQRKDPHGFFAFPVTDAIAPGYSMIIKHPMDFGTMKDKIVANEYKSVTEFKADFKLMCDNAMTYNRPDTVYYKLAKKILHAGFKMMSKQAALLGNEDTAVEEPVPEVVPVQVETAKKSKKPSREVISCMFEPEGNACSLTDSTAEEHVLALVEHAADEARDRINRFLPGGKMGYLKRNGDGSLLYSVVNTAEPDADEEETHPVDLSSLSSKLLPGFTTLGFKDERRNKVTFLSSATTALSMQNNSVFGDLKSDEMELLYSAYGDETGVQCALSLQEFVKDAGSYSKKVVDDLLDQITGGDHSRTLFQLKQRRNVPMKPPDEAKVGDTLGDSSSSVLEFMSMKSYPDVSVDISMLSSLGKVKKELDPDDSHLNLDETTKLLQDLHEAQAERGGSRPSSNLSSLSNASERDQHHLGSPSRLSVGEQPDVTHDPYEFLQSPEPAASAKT
As to the kind of experiment: Inhibition of BRD9 (unknown origin) at 25 uM by alphascreen assay. In general terms: Bead proximity is the source of the signal in Alpha formats.

Assay [3] concerns the target Chromatin remodeling regulator CECR2 (Homo sapiens) (UniProt Q9BXF3). The experiment in a line: Binding affinity to recombinant human CECR2 by differential scanning fluorimetry.
In assay [4] the target is T3, Bromodomain-containing protein 7 (Homo sapiens) (UniProt Q9NPI1).
T3 sequence (whole entry): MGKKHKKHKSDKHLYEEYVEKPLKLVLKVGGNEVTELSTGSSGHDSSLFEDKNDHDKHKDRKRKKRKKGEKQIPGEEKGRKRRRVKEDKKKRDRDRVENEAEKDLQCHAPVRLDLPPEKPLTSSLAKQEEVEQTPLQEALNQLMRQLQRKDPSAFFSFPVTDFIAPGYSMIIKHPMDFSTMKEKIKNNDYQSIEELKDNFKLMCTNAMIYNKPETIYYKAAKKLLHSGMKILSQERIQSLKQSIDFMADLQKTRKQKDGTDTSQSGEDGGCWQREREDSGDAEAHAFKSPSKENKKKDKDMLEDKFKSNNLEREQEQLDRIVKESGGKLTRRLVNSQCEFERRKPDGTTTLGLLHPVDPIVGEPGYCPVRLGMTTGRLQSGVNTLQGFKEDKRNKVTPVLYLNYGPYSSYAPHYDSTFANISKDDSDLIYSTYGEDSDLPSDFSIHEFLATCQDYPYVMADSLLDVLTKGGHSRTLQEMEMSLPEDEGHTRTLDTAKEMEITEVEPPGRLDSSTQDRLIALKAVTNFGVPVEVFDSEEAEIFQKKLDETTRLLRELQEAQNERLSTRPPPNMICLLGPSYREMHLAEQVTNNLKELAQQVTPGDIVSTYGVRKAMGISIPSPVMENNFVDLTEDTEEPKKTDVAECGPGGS
As to the kind of experiment: Binding affinity to recombinant human BRD7 by differential scanning fluorimetry.

For assay [5], the target named is T1, Histone acetyltransferase KAT2B. The experiment in a line: Binding affinity to N-terminal His-tagged PCAF (715 to 831 residues) (unknown origin) expressed in Escherichia coli Rosetta cells by isothermal titration calorimetry. (ITC needs no label: the signal is the heat of the interaction.)
Target sequence in this assay (Q92831 whole entry): as the sequence (Q92831 whole entry, looked up) above
Assay [6] has the same target. The experiment in a line: Binding affinity to recombinant N-terminal His-tagged PCAF (715 to 831 residues) (unknown origin) expressed in Escherichia coli Rosetta cells at 0.5 mM by differential scanning fluorimetry. Background: Differential scanning fluorimetry follows unfolding on heating by fluorescence.
Target sequence in this assay (Q92831 whole entry, looked up): as the sequence (Q92831 whole entry, looked up) above

Structures are written as SMILES. Calls of active or inactive are those of the source. No cut-off for these calls is given here.

Chromatin remodeling regulator CECR2 (Homo sapiens), sequence (Q9BXF3 whole entry, looked up): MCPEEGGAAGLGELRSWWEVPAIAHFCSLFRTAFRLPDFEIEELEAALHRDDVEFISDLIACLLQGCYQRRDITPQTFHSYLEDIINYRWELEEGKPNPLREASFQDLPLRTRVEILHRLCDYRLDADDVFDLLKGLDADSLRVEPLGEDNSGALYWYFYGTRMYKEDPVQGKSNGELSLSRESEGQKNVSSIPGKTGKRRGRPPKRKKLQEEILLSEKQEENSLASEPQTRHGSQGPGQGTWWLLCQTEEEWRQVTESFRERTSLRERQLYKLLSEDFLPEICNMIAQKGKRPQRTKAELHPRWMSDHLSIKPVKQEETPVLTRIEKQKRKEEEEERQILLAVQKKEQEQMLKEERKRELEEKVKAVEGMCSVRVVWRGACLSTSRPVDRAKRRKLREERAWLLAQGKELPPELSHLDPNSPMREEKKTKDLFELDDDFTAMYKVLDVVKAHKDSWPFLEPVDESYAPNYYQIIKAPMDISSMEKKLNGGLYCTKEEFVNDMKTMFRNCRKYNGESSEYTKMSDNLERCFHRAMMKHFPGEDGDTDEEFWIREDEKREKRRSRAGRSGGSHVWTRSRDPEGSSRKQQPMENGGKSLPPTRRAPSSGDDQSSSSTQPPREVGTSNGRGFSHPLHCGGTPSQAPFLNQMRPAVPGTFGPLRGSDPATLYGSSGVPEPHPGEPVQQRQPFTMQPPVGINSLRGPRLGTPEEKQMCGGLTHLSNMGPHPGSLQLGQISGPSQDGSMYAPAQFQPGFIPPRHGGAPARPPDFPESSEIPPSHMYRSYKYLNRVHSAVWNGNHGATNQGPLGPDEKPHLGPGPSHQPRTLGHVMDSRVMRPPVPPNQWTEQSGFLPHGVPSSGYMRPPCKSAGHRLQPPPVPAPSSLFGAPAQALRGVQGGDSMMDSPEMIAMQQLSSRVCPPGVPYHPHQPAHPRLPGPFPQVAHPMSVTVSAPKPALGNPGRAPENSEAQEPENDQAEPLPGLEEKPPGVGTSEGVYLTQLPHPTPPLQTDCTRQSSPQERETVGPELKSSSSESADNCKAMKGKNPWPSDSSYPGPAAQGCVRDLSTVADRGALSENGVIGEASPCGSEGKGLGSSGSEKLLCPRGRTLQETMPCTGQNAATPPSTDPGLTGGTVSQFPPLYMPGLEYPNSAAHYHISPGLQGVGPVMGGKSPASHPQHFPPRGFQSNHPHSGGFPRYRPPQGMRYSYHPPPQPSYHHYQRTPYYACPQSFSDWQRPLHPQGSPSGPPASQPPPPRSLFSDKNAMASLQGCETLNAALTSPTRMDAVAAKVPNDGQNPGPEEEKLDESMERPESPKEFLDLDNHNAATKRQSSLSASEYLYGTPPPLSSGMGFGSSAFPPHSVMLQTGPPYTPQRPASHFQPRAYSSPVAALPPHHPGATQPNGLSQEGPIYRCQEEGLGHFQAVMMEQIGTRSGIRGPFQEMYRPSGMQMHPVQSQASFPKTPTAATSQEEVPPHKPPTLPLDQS

Regarding `COC(=O)c1ccc(N2CCOCC2)nc1`, the ΔTm (usually the change in melting temperature against a reference sample) in assay [1] amounted to 0.7 °C.

In the case of `COc1cccc2onc(N)c12`, the ΔTm in assay [1] is 0.8 °C.

For the molecule `Cc1cc(=O)n(C)c2cc(NS(C)(=O)=O)ccc12`, the inhibition entry in assay [2] is “Active”.

On to `CN1Cc2ccccc2C1=O`, for which the ΔTm in assay [1] is 1.5 °C.

Regarding `NC(=O)c1ccc2[nH]ccc2c1`, the ΔTm in assay [1] was 2 °C.

In the case of `Cc1nn(CCO)c2c1C(=O)CCC2`, the ΔTm in assay [1] worked out at 0.9 °C.

With `CC(=O)Nc1ccc2c(C)cc(=O)n(C)c2c1`, the inhibition entry in assay [2] is “Active”. Further, the ΔTm in assay [1] was determined as 2.6 °C.

On to `Cn1c(=O)ccc2ccccc21`, for which the shift in melting temperature (ΔTm) in assay [1] came out at 2 °C.

As for `NCc1ccc(-c2csnn2)cc1`, the ΔTm in assay [1] worked out at 1 °C.

Turning to `CNC(=O)c1cc(OCC(=O)Nc2ccccc2)ccc1OC1CCOCC1`, the values for the ΔTm in assay [3], in assay [4] and in assay [6] were 7.1 °C, 6.5 °C and 3.3 °C, respectively. The Kd (in general, a measure of binding affinity in units of concentration) in assay [5] came out at 6.8 µM.

On to `NC(=O)c1cccc2c1OCCO2`, for which the ΔTm in assay [1] is 0.8 °C.

As to `Cc1c(N)c(=O)n(-c2ccccc2)n1C`, the ΔTm in assay [1] was determined as 0.6 °C.

On to `NC1CCN(C(=O)C2CC2)CC1`, for which the ΔTm in assay [1] was 1 °C.

Take `Oc1ccccc1-c1ccno1`: the ΔTm in assay [1] came out at 1.3 °C.

The values above are taken from ChEMBL document CHEMBL3774375, “Structure-Based Identification of Inhibitory Fragments Targeting the p300/CBP-Associated Factor Bromodomain” (J Med Chem, 2016).
